In patent US9073821B2, “Hydroxamic acid derivative” (priority 2010, dated 2015):
Read-outs that look alike come from different tables or passages of the source.

Target: Pseudomonas aeruginosa LpxC enzyme (Pseudomonas aeruginosa (strain ATCC 15692 / DSM 22644 / CIP 104116 / JCM 14847 / LMG 12228 / 1C / PRS 101 / PAO1), UniProt P47205)
Assay: biochemical
Format: biochemical
Procedure: Test 1: Evaluation of the Inhibitory Activity on Pseudomonas aeruginosa LpxC Enzyme
An inhibition curve was constructed for each test compound by performing the aforementioned reaction at varying concentrations of the test compound. From this inhibition curve, the concentration of the test compound at which the formation of the reaction product was suppressed by 50% was determined as the IC50 of the test compound, which was an index for the inhibitory activity on Pseudomonas aeruginosa LpxC enzyme.

[1] = inhibitory activity on Pseudomonas aeruginosa LpxC enzyme, class symbols A/B/C, read-out: Enzyme inhibitory activity
[2] = class symbols A/B/C by IC50, Table 3, read-out: Enzyme inhibitory activity (inhibitory activity on Pseudomonas aeruginosa LpxC enzyme)

| SMILES | IC50 [1] | also measured |
| --- | --- | --- |
| CNC(=O)C(C(=O)NO)N(C)C(=O)c1ccc(-c2ccc(NC)cc2F)cc1 (stereo not shown) [Compound 226, 2-[{[2′-fluoro-4′-(methylamino)biphenyl-4-yl]carbonyl}(methyl)amino]-N-hydroxy-N′-methylpropanediamide] | < 10 nM | – |
| CNC(=O)C(C(=O)NO)N(C)C(=O)c1ccc(-c2ccc(N(C)C)c(F)c2)cc1 (stereo not shown) [Compound 54, 2-[{[4′-(dimethylamino)-3′-fluorobiphenyl-4-yl]carbonyl}(methyl)amino]-N-hydroxy-N′-methylpropanediamide] | 10 to 100 nM | – |
| CNC(=O)C(C(=O)NO)N(C)C(=O)c1ccc(-c2ccccc2F)cc1 (stereo not shown) [Compound 59, 2-{[(2′-fluorobiphenyl-4-yl)carbonyl](methyl)amino}-N-hydroxy-N′-methylpropanediamide] | < 10 nM | – |
| CNC(=O)C(C(=O)NO)N(C)C(=O)c1ccc(C#Cc2cnn(CCOC)c2)cc1 (stereo not shown) [Compound 518, N-hydroxy-2-{[(4-{[1-(2-methoxyethyl)-1H-pyrazol-4-yl]ethynyl}phenyl)carbonyl](methyl)amino}-N′-methylpropanediamide] | – | IC50 [2]: 10 to 100 nM |
| CNC(=O)C(C(=O)NO)N(C)C(=O)c1ccc(-c2ccc(N(C)C(=O)OC(C)(C)C)c(C)c2)cc1 (stereo not shown) [Compound 44, tert-butyl(4′-{[1-(hydroxyamino)-3-(methylamino)-1,3-dioxopropan-2-yl](methyl)carbamoyl}-3-methylbiphenyl-4-yl)methylcarbamate] | 10 to 100 nM | – |
| CCCc1ccc(-c2ccc(C(=O)N(C)C(C(=O)NC)C(=O)NO)cc2)cc1 (stereo not shown) [Compound 182, N-hydroxy-N′-methyl-2-{methyl[(4′-propylbiphenyl-4-yl)carbonyl]amino}propanediamide] | < 10 nM | – |
| Cn1nccc1CNC(=O)C(NC(=O)c1ccc(-c2ccc(OCCO)cc2)cc1)C(=O)NO (stereo not shown) [Compound 146, N-hydroxy-2-({[4′-(2-hydroxyethoxy)biphenyl-4-yl]carbonyl}amino)-N′-[(1-methyl-1H-pyrazol-5-yl)methyl]propanediamide] | < 10 nM | – |
| CNC(=O)C(C(=O)NO)N(C)C(=O)c1ccc(C#Cc2ccc(CN3CC(OC)C3)cc2)cc1 (stereo not shown) [Compound 505, N-hydroxy-2-[{[4-({4-[(3-methoxyazetidin-1-yl)methyl]phenyl}ethynyl)phenyl]carbonyl}(methyl)amino]-N′-methylpropanediamide] | – | IC50 [2]: < 10 nM |
| CCCNc1ccc(-c2ccc(C(=O)N(C)C(C(=O)NC)C(=O)NO)cc2)cc1 (stereo not shown) [Compound 245, N-hydroxy-N′-methyl-2-(methyl {[4′-(propylamino)biphenyl-4-yl]carbonyl}amino)propanediamide] | < 10 nM | – |
| CNC(=O)C(C(=O)NO)N(C)C(=O)c1ccc(-c2ccc3ncsc3c2)cc1 (stereo not shown) [Compound 199, 2-{[4-(1,3-benzothiazol-6-yl)benzoyl](methyl)amino}-N-hydroxy-N′-methylpropanediamide] | < 10 nM | – |
| CNC(=O)C(C(=O)NO)N(C)C(=O)c1ccc(C#Cc2ccc(CN3C4CCC3CC4)cc2)cc1 (stereo not shown) [Compound 527, 2-{[(4-{[4-(7-azabicyclo[2.2.1]hept-7-ylmethyl)phenyl]ethynyl}phenyl)carbonyl](methyl)amino}-N-hydroxy-N′-methylpropanediamide] | – | IC50: 10 to 100 nM |
| CNC(=O)C(C(=O)NO)N(C(=O)c1ccc(-c2ccccc2)cc1)C1CC1 (stereo not shown) [Compound 127, 2-[(Biphenyl-4-ylcarbonyl)(cyclopropyl)amino]-N-hydroxy-N′-methylpropanediamide] | < 10 nM | – |
| CNC(=O)C(C(=O)NO)N(C)C(=O)c1ccc(-c2ccc(C3OCCO3)cc2)cc1 (stereo not shown) [Compound 187, 2-[{[4′-(1,3-dioxolan-2-yl)biphenyl-4-yl]carbonyl}(methyl)amino]-N-hydroxy-N′-methylpropanediamide] | < 10 nM | – |
| CNC(=O)C(C(=O)NO)N(C(=O)c1ccc(-c2ccccc2)cc1)C1CCC1 (stereo not shown) [Compound 163, 2-[(biphenyl-4-ylcarbonyl)(cyclobutyl)amino]-N-hydroxy-N′-methylpropanediamide] | 10 to 100 nM | – |
| CCNc1ccc(-c2ccc(C(=O)N(C)C(C(=O)NC)C(=O)NO)cc2)cc1 (stereo not shown) [Compound 32, 2-[{[4′-(ethylamino)biphenyl-4-yl]carbonyl}(methyl)amino]-N-hydroxy-N′-methylpropanediamide] | < 10 nM | – |
| CNC(=O)C(C(=O)NO)N(C)C(=O)c1ccc(-c2ccc(N3CCN(C)CC3)cc2)cc1 (stereo not shown) [Compound 267, N-hydroxy-N′-methyl-2-(methyl {[4′-(4-methylpiperazin-1-yl)biphenyl-4-yl]carbonyl}amino)propanediamide] | 10 to 100 nM | – |
| CNC(=O)C(C(=O)NO)N(C)C(=O)c1ccc(-c2ccc(NCC3CC3)cc2)cc1 (stereo not shown) [Compound 79, 2-[({4′-[(cyclopropylmethyl)amino]biphenyl-4-yl}carbonyl)(methyl)amino]-N-hydroxy-N′-methylpropanediamide] | < 10 nM | – |
| CNC(=O)C(C(=O)NO)N(C)C(=O)c1ccc(-c2ccc3c(ccn3C)c2)cc1 (stereo not shown) [Compound 19, N-hydroxy-N′-methyl-2-{methyl[4-(1-methyl-1H-indol-5-yl)benzoyl]amino}propanediamide] | < 10 nM | – |
| CNC(=O)C(C(=O)NO)N(C)C(=O)c1ccc(-c2ccc(-c3ccc(CO)o3)cc2)cc1 (stereo not shown) [Compound 499, N-hydroxy-2-[({4′-[5-(hydroxymethyl)furan-2-yl]biphenyl-4-yl}carbonyl)(methyl)amino]-N′-methylpropanediamide] | – | IC50 [2]: < 10 nM |

The next lines start with results.

| IC50 [1] | SMILES | also measured |
| --- | --- | --- |
| 10 to 100 nM | CNC(=O)C(C(=O)NO)N(C)C(=O)c1cnc(-c2ccc3c(c2)OCO3)c(F)c1 (stereo not shown) [Compound 458, 2-[{[6-(1,3-benzodioxol-5-yl)-5-fluoropyridin-3-yl]carbonyl}(methyl)amino]-N-hydroxy-N′-methylpropanediamide] | – |
| < 10 nM | CNC(=O)C(C(=O)NO)N(C)C(=O)c1ccc(C#Cc2ccc(CNCC(C)(C)C)cc2)cc1 (stereo not shown) [Compound 329, 2-[({4-[(4-{[(2,2-dimethylpropyl)amino]methyl}phenyl)ethynyl]phenyl}carbonyl)(methyl)amino]-N-hydroxy-N′-methylpropanediamide] | – |
| < 10 nM | CNC(=O)C(C(=O)NO)N(C)C(=O)c1ccc(-c2ccc(OCCCN3CCCOCC3)cc2)cc1 (stereo not shown) [Compound 277, N-hydroxy-N′-methyl-2-[methyl({4′-[3-(1,4-oxazepan-4-yl)propoxy]biphenyl-4-yl}carbonyl)amino]propanediamide] | – |
| > 100 nM | CNC(=O)C(C(=O)NO)N(C)C(=O)c1ccc(Cc2ccccc2)cc1 (stereo not shown) [Compound 445, 2-{[(4-benzylphenyl)carbonyl](methyl)amino}-N-hydroxy-N′-methylpropanediamide] | – |
| < 10 nM | CCN(C(=O)c1ccc(C#Cc2ccc(CN3CCCOCC3)cc2)cc1)C(C(=O)NC)C(=O)NO (stereo not shown) [Compound 336, 2-{ethyl[(4-{[4-(1,4-oxazepan-4-ylmethyl)phenyl]ethynyl}phenyl)carbonyl]amino}-N-hydroxy-N′-methylpropanediamide] | – |
| < 10 nM | CNC(=O)C(C(=O)NO)N(C)C(=O)c1ccc(-c2ccc(OCCCN3CC(OC)C3)cc2)cc1 (stereo not shown) [Compound 276, N-hydroxy-2-[({4′-[3-(3-methoxyazetidin-1-yl)propoxy]biphenyl-4-yl}carbonyl)(methyl)amino]-N′-methylpropanediamide] | – |
